This is an account of results in ChEMBL document CHEMBL5154733, “Targeting NLRP3 signaling by a novel-designed sulfonylurea compound for inhibition of microglial inflammation” (Bioorg Med Chem, 2022).

Active and inactive are the calls of the source. The calls are words filed in the database; no cut-off is given here.

Series [1] concerns N9. Briefly: Inhibition of LPS-induced of NLRP3 expression in mouse N9 cells at 0.7 to 2.8 uM incubated for 24 hrs dosed 24 hrs after LPS stimulation by Quantitative PCR assay. The conditions noted are these: dose 0.7-2.8 µM, DDE = dose-dependent effect. Format: functional.
A short description of series [2]: Inhibition of LPS-induced of NLRP3 expression in mouse N9 cells assessed as NLRP3 expression level at 0.7 uM incubated for 24 hrs dosed 24 hrs after LPS stimulation by Quantitative PCR assay. In kind it is functional. Also on record: scale not given: the % may be the effect or the level left.
Series [3] is described as follows: Inhibition of LPS-induced of NLRP3 expression in mouse N9 cells assessed as NLRP3 expression level at 1.4 uM incubated for 24 hrs dosed 24 hrs after LPS stimulation by Quantitative PCR assay. In kind it is functional. Further details: scale not given: the % may be the effect or the level left.
The nature of series [4]: Inhibition of LPS-induced of NLRP3 expression in mouse N9 cells assessed as NLRP3 expression level at 2.8 uM incubated for 24 hrs dosed 24 hrs after LPS stimulation by Quantitative PCR assay. Also on record: scale not given: the % may be the effect or the level left. Format: functional.
The subject of series [5] is N9. The experiment in a line: Inhibition of LPS-induced of NLRP3 expression in mouse N9 cells at 2.8 uM incubated for 24 hrs dosed 24 hrs after LPS stimulation by Western blot. Format: functional.
In series [6] the test system is N9. Briefly: Inhibition of LPS-induced of iNOS expression in mouse N9 cells at 2.8 uM incubated for 24 hrs dosed 24 hrs after LPS stimulation by Western blot. Format: functional.
Series [7] has as its system N9. The experiment in a line: Inhibition of LPS-induced of nitric oxide production in mouse N9 cells at 2.8 uM incubated for 24 hrs dosed 24 hrs after LPS stimulation by DAF-FM dye based fluorescence assay. In kind it is functional.
The nature of series [8]: Toxicity in mouse N9 cells assessed as effect on cell viability at 0.35 to 5.6 uM incubated for 24 hrs by MTT assay. Format: cell-based. The conditions noted are these: n9, 24 h, dose 0.35-5.6 µM.
For series [9], the system named is N9. Briefly: Inhibition of LPS-induced Caspase-1 expression in mouse N9 cells at 2.8 uM incubated for 24 hrs dosed 24 hrs after LPS stimulation by FLICA 660 Caspase-1 assay. Format: functional.
A short description of series [10]: Inhibition of LPS-induced of IL-1beta expression in mouse N9 cells assessed as relative IL-1beta expression at 2.8 uM incubated for 24 hrs dosed 24 hrs after LPS stimulation by Quantitative PCR assay (reference value: 7 fold). Format: functional.
A short description of series [11]: Inhibition of LPS-induced of IL-1beta expression in mouse N9 cells assessed as IL-1beta level at 2.8 uM incubated for 24 hrs dosed 24 hrs after LPS stimulation by ELISA (reference value: 100 pg/ml). In kind it is functional.
Series [12] concerns N9. The experiment in a line: Inhibition of LPS-induced of TNF-alpha expression in mouse N9 cells at 2.8 uM incubated for 24 hrs dosed 24 hrs after LPS stimulation by ELISA. In kind it is functional.
Series [13] has as its system N9. Briefly: Inhibition of LPS-induced of phagocytosis in mouse N9 cells assessed as decrease in intracellular FAM-Abeta42 fluorescent intensity at 2.8 uM incubated for 24 hrs dosed 24 hrs after LPS stimulation by FAM-labeled fluorescent Abeta-42 peptide based fluorescence assay. In kind it is functional.
In series [14] the test system is N9. The experiment in a line: Inhibition of LPS-induced of phagocytosis in mouse N9 cells assessed as decrease in FAM positive cell number at 2.8 uM incubated for 24 hrs dosed 24 hrs after LPS stimulation by FAM-labeled fluorescent Abeta-42 peptide based fluorescence assay. In kind it is functional.
Series [15] in a line: Stabilization of microglia morphology in mouse N9 cells assessed as resting morphology level at 2.8 uM incubated for 24 hrs dosed 24 hrs after LPS stimulation by (reference value: 18%). Format: functional.
Series [16] concerns Brain. The experiment in a line: Suppression of microglia activation in C57BL/6 mouse brain assessed as maintenance of microglia morphology by measuring Iba1 positive cells in cerebral cortex area at 55 mg/kg, ip by immunofluorescence staining. In kind it is functional, organism-based.
Series [17] deals with Brain. Briefly: Suppression of microglia activation in C57BL/6 mouse brain assessed as maintenance of microglia morphology by measuring Iba1 positive cell number in cerebral cortex positive cells in cerebral cortex area at 55 mg/kg, ip by immunofluorescence staining. Format: functional, organism-based.

On to `O=C1N(c2cncnc2)CCCN1S(=O)(=O)c1ccc(C(F)(F)F)cc1`, for which the inhibition entry with N9 [1] was “Dde”. In addition, the Activity in series [2] is 370%; in series [3], 220%; in series [4], 100%; in series [8], “Non-Toxic”; in [11], 70 pg/mL; in series [15], 65%. In addition, the inhibition result in the series on N9 [5], in the series with N9 [6], in the series on N9 [7], in the series on N9 [9], in the series with N9 [12] and in the series on N9 [13] was “Active” throughout. In addition, the inhibition entry in the series on N9 [14] is “Active”. Moreover, the “fold change (FC)” value in [10] was 2. In addition, the result in the series with Brain [16] and in the series with Brain [17] was Active.
